Assay results as given in US20230339878A1, “SLC26A3 INHIBITORS AND USE THEREOF” (THE REGENTS OF THE UNIVERSITY OF CALIFORNIA, priority 2018, published 2023).

The molecules below were run against T1, murine slc26a3 (Mus musculus, UniProt Q9WVC8) (assay: slc26a3-mediated Cl-/I- exchange, YFP fluorescence quenching in FRT-YFP-slc26a3 cells). Conditions: 350 µM.
T1 construct: host or cells: Fischer rat thyroid (FRT) cells expressing YFP, clonal line FRT-YFP-slc26a3
T1 sequence (Q9WVC8 1-757): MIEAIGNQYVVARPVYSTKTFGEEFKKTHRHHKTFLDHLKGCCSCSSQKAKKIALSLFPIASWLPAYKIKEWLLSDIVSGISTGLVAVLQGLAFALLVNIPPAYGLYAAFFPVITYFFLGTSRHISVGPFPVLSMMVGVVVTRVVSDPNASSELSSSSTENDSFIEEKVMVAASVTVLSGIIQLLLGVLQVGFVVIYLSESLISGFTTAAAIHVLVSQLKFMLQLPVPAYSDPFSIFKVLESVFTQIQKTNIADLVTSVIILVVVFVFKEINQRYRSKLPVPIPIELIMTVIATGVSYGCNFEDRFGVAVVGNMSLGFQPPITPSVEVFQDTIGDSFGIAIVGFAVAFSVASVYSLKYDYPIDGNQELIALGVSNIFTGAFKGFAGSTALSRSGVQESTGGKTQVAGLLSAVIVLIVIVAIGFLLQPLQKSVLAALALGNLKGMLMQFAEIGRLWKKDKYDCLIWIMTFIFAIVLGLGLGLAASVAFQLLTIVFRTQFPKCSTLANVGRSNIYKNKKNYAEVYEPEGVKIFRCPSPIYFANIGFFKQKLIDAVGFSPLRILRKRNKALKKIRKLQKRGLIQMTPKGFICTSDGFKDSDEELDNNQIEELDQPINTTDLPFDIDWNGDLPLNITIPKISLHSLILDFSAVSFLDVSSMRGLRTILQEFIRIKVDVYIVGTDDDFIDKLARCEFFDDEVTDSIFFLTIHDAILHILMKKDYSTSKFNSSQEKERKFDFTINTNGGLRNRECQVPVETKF
Assay type: cell-based
Protocol: High-throughput screening to identify slc26a3 inhibitors using FRT-YFP- slc26a3 cells was done with a semi-automated Beckman Coulter (Indianapolis, IN) platform with FLUOstar OMEGA plate readers (BMG Labtech, Cary, NC), essentially as described for discovery of pendrin inhibitors. Initial screening was done of ~50,000 drug-like synthetic small molecules (ChemDiv, San Diego, CA) at a concentration of 25 µM using a Cl^-/I^- exchange protocol to assay slc26a3 function. Following initial screening, compound analogs were purchased (ChemDiv, San Diego, CA) to generate structure-activity data.
For the screening, FRT-YFP-slc26a3 cells were plated in 96-well black-walled, clear-bottom tissue culture plates (Corning Life Sciences, Tewksbury, MA) at a density of 20,000 cells/well and cultured for 48 hours until confluent. For screening, cells were washed twice in PBS and incubated for 10 min in 100 µl PBS containing test compounds prior to assay of slc26a3 function. Assays were done using a FLUOstar OMEGA plate reader (BMG Labtech, Cary, NC) over 12 s with initial fluorescence recorded over 1 s prior to addition of 100 µl NaI-substituted PBS (137 mM NaCl replaced by 137 mM NaI) to drive Cl^-/I^- exchange. The initial rate of Cl^-/I^- exchange was determined from fluorescence intensity by single exponential regression. All plates contained wells with negative (1 % DMSO) and positive (350 µM niflumic acid) controls.
Screening was done using an FRT cell line stably expressing murine slc26a3 and a halide-sensitive yellow fluorescent protein (FRT-YFP- slc26a3 cells). FRT cells were used because of their low intrinsic permeability to anions that are transported by slc26a3, and because of their good adherence and rapid growth on uncoated plastic. As diagrammed in FIG. 1A, slc26a3-mediated transport was assayed from the kinetics of YFP fluorescence quenching in response to extracellular addition of I^- to drive Cl^-/I^- exchange; transport inhibition reduces the rate of fluorescence decrease.
With O=C(O)c1cccnc1Nc1cccc(C(F)(F)F)c1 [niflumic acid, reference compound] the “inhibition of slc26a3, positive control” value was “strongly inhibited”.

Same assay, conditions: read-out: IC50 for inhibition of slc26a3-mediated Cl-/I- exchange
Molecule O=C(O)c1cccnc1Nc1cccc(C(F)(F)F)c1 [niflumic acid, reference compound] has an IC50 of ~60000 nM.

Same assay, conditions: representative Class A compounds, Table 3; read-out: IC50
Work on Cc1c(CC(=O)O)c(=O)oc2c(C)c(OCc3ccc(C(F)(F)F)o3)ccc12 [Compound A286] yielded an IC50 of 300 nM.
Cc1c(CC(=O)O)c(=O)oc2c(C)c(OCC3CCCC3)ccc12 [Compound A281] showed an IC50 of 1800 nM.
For Cc1c(CC(=O)O)c(=O)oc2c(C)c(OCc3cccc([N+](=O)[O-])c3)ccc12 [Compound A253], the IC50 was 500 nM.
Cc1c(CC(=O)O)c(=O)oc2c(C)c(OCc3cc(C(F)(F)F)cc(C(F)(F)F)c3)ccc12 [Compound A263] gave an IC50 of 15000 nM.
In the case of Cc1c(CC(=O)O)c(=O)oc2c(C)c(OCC3CCC3)ccc12 [Compound A280], the IC50 is reported as 3400 nM.
Work on Cc1c(CC(=O)O)c(=O)oc2c(C)c(OCc3ccccc3I)ccc12 [Compound A269] yielded an IC50 of 4500 nM.
Cc1c(CC(=O)O)c(=O)oc2c(C)c(OCc3cccc(C4CC4)c3)ccc12 [Compound A261] showed an IC50 of 70 nM.
With Cc1c(CC(=O)O)c(=O)oc2c(C)c(OC3CCCC3)ccc12 [Compound A279] the IC50 was 4500 nM.
Molecule Cc1c(CC(=O)O)c(=O)oc2c(C)c(OCc3cc(C(F)(F)F)ccc3F)ccc12 [Compound A266] has an IC50 of 100 nM.
Work on CCCCCCOc1ccc2c(C)c(CC(=O)O)c(=O)oc2c1C [Compound A278] yielded an IC50 of 1500 nM.

Same assay, conditions: selected class A analogs, Table 1; Cl-/I- exchange; read-out: IC50
Cc1c(CC(=O)O)c(=O)oc2c(C)c(OCc3ccc(Cl)c(Cl)c3)ccc12 [Compound A7] gave an IC50 of 1800 nM.
